Experimental data reported in ChEMBL document CHEMBL1275380, “Studies toward the structural optimization of novel thiazolylhydrazone-based potent antitrypanosomal agents” (Bioorg Med Chem, 2010).
Calls of active or inactive are those of the source. The calls are words filed in the database; no cut-off is given here.

Legend:
[1] = test system: Trypanosoma cruzi; assay: Antitrypanosomal activity against epimastigotes of Trypanosoma cruzi Y assessed as viability after 11 days by trypan blue exclusion assay; format: functional, organism-based; conditions: 264 h
[2] = target: Cruzipain (Trypanosoma cruzi) (UniProt P25779); assay: Inhibition of Trypanosoma cruzi cruzaine in presence of 0.01% Triton X-100
[3] = test system: Trypanosoma cruzi; assay: Antitrypanosomal activity against epimastigotes of Trypanosoma cruzi Y assessed as viability at 40 uM after 11 days by trypan blue exclusion assay; format: functional; conditions: 264 h
[4] = Cytotoxicity against BALB/c mouse Splenocyte assessed as non-cytotoxic concentration after 24 hrs by [3H]-thymidine incorporation assay relative to control; format: cell-based; conditions: splenocytes, read-out: Activity
[5] = target: Cruzipain (Trypanosoma cruzi) (UniProt P25779); assay: Inhibition of Trypanosoma cruzi cruzaine in absence of 0.01% Triton X-100
[6] = test system: Trypanosoma cruzi; assay: Antitrypanosomal activity against trypomastigotes of Trypanosoma cruzi Y assessed as viability after 24 hrs by trypan blue exclusion assay; format: functional, organism-based
[7] = target: Cruzipain (Trypanosoma cruzi) (UniProt P25779); assay: Inhibition of Trypanosoma cruzi cruzaine at 100 uM pre-incubated for 10 mins
[8] = test system: Mus musculus; assay: Toxicity in Swiss mouse assessed as mortality at 100 mg/kg, ip after 72 hrs; format: organism-based; parameters: dose 100 mg/kg, route intraperitoneal; conditions: in vivo
[9] = target: Cruzipain (Trypanosoma cruzi) (UniProt P25779); assay: Inhibition of Trypanosoma cruzi cruzaine without pre-incubation; conditions: TDE = time-dependent effect
[10] = target: Cruzipain (Trypanosoma cruzi, UniProt P25779); assay: Inhibition of Trypanosoma cruzi cruzaine pre-incubated for 10 mins
[11] = test system: Trypanosoma cruzi; assay: Antitrypanosomal activity against epimastigotes of Trypanosoma cruzi Y assessed as viability at 40 uM after 15 hrs by trypan blue exclusion assay; format: functional
[12] = test system: Trypanosoma cruzi; assay: Antitrypanosomal activity against epimastigotes of Trypanosoma cruzi Y assessed as viability at 40 uM after 7 days by trypan blue exclusion assay; format: functional; conditions: 168 h

Cruzipain, sequence (P25779 whole entry): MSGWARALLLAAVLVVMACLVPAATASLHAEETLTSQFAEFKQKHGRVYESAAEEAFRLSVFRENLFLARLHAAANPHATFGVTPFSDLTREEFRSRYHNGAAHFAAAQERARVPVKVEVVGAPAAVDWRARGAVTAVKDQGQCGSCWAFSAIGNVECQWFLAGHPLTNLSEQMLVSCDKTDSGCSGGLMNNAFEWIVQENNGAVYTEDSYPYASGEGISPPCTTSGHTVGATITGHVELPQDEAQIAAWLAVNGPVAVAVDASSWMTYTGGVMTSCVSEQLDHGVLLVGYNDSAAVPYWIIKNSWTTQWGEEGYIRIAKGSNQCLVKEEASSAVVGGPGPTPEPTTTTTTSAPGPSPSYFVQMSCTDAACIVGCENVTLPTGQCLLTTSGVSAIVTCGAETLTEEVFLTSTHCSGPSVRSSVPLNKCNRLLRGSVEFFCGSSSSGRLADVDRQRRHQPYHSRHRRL
Cruzipain (Trypanosoma cruzi), sequence (P25779 123-467 limits assumed): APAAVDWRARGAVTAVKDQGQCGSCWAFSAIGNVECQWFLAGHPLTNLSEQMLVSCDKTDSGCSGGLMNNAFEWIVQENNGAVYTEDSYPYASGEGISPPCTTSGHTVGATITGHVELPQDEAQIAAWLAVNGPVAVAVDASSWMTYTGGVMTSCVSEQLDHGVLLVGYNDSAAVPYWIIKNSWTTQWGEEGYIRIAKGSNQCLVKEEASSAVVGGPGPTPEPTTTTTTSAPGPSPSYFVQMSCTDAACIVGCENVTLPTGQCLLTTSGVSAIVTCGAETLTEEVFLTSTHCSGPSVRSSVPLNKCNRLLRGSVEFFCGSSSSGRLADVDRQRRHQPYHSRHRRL

IC50 [1]	inhibition [2]	inhibition [5]	IC50 [6]	inhibition [7]	inhibition [9]	SMILES	inhibition at 40 µM [3]	MNTC at 24 h [4]	Activity [8]	IC50 [10]	inhibition at 40 µM [11]	inhibition at 40 µM [12]
2.3 µM	Active	Active	10.1 µM	8%	–	O=C1CS/C(=N/N=C/C=C/c2ccccc2)N1	–	< 1 µg/mL	–	–	–	–
8.5 µM	–	–	39.5 µM	96%	tde	C/C(=N\N=C(\N)S)c1ccc(Cl)c(Cl)c1	–	1 µg/mL	–	0.1 µM	–	–
15.4 µM	–	–	11.1 µM	92%	tde	CC/C(=N\N=C(\N)S)c1cccc(Br)c1	–	–	–	–	–	–
167 µM	Active	Active	44.2 µM	5%	–	CC1S/C(=N/N=C/CSc2ccccc2)NC1=O (configuration not stated)	4%	> 100 µg/mL	–	–	–	–
32.1 µM	Active	Active	–	98%	–	CC1S/C(=N/N=C/CCSc2ccc(Cl)cc2)NC1=O (configuration not stated)	10%	> 100 µg/mL	–	0.2 µM	–	–
3.7 µM	Active	Active	3.7 µM	–	–	NC(=S)N/N=C/CCc1ccccc1	–	< 1 µg/mL	–	–	–	–
7.3 µM	Active	Active	7.4 µM	35%	–	NC(=S)N/N=C/C=C/c1ccccc1	99%	< 1 µg/mL	–	–	–	–

The next lines start with the compound.

SMILES	IC50 [1]	inhibition [2]	inhibition [5]	IC50 [6]	inhibition [7]	inhibition [9]	inhibition at 40 µM [3]	MNTC at 24 h [4]	Activity [8]	IC50 [10]	inhibition at 40 µM [11]	inhibition at 40 µM [12]
CCC1S/C(=N/N=C(\C)CSc2ccc(S)cc2)NC1=O (configuration not stated)	40.8 µM	Active	Active	54.6 µM	11%	–	41%	> 100 µg/mL	–	–	–	–
CC/C(=N\NC(N)=S)c1cccc(Br)c1	–	–	–	–	–	–	–	1 µg/mL	–	–	–	–
O=C1CS/C(=N/N=C/CSc2ccc(Br)cc2)N1	42.9 µM	Active	Active	–	8%	–	31.5%	> 100 µg/mL	–	–	–	–
O=C1CS/C(=N/N=C/CSc2ccc(Cl)cc2)N1	43.9 µM	Active	Active	82.4 µM	11%	–	8%	> 100 µg/mL	–	–	–	–
Cc1ccc(SC/C=N/N=C2\NC(=S)C(C)S2)cc1 (configuration not stated)	6.1 µM	Active	Active	4.5 µM	6%	–	–	< 1 µg/mL	Toxic	–	–	–
CCC1S/C(=N/N=C(\C)CSc2ccc(C)cc2)NC1=O (configuration not stated)	45.1 µM	Active	Active	76.9 µM	22%	–	40%	> 100 µg/mL	–	–	–	–
O=C(Cn1ccnc1[N+](=O)[O-])NCc1ccccc1 [BENZNIDAZOLE]	–	–	–	–	–	–	97%	25 µg/mL	Non-toxic	–	43%	85%
Cc1ccc(SC/C=N/N=C2\NC(=O)C(C)S2)cc1 (configuration not stated)	6.7 µM	Active	Active	84.8 µM	80%	–	97%	> 100 µg/mL	Non-toxic	20.4 µM	85%	97%
CC1S/C(=N/N=C/CCSc2ccccc2)NC1=O (configuration not stated)	2.9 µM	Active	Active	10 µM	93%	–	100%	> 100 µg/mL	Non-toxic	0.4 µM	75%	100%
NC(=S)N/N=C/CSc1ccccc1	13.4 µM	Active	Active	158 µM	28%	–	100%	5 µg/mL	Non-toxic	–	–	–
CCC1S/C(=N/N=C(\C)CSc2ccc(Cl)cc2)NC1=O (configuration not stated)	62.9 µM	Active	Active	148 µM	31%	–	24%	> 100 µg/mL	–	–	–	–
CCC1S/C(=N/N=C/CSc2ccc(Br)cc2)NC1=O (configuration not stated)	26.9 µM	Active	Active	–	38%	–	77%	> 100 µg/mL	Non-toxic	–	0%	61%
CC1S/C(=N/N=C/CCSc2ccccc2)NC1=S (configuration not stated)	8.1 µM	Active	Active	2.3 µM	92%	–	–	1 µg/mL	Toxic	0.06 µM	–	94%
